Data on one sequence can be found in PMC10065799, “High-throughput profiling of sequence recognition by tyrosine kinases and SH2 domains using bacterial peptide display” (eLife, 2023).

The target of this experiment is T1, c-Abl kinase domain (Mus musculus, UniProt P00520).
T1 sequence (P00520 242-493 limits assumed): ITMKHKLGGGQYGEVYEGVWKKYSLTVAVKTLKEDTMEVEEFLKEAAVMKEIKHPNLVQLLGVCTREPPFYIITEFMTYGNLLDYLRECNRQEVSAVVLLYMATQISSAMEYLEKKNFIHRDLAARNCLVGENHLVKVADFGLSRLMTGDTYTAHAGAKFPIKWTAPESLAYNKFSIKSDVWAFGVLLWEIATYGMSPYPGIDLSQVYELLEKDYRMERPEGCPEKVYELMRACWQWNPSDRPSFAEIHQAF
Put plainly: pTyr-Var library bacterial peptide display kinase screen (enrichment scores). The following applies: variant versus reference peptide. Type of experiment: biochemical.

For the sequence DRVALYVAREG [AACS_Y117_I118V], the “c-Abl difference (mean log2 variant - mean log2 reference)” value is listed as -0.3292.
